Test results taken from patent publication US7662856B2, “Compositions having antimycrobial activity including a hydroxamate or a hydroxamate and a hydroxlyamine” (The University of Houston System, priority 2003, dated 2010).
≈ marks a conversion by molar mass, not a printed value. Counter-ions that a name gives are not always drawn. Like-named read-outs stand apart in the source and are kept apart here.

Tests used:
[1] = biological target: alanine racemase enzyme from M. tuberculosis (Mycobacterium tuberculosis, UniProt P9WQA9, DEL103-104); assay type: biochemical
alanine racemase enzyme from M. tuberculosis, sequence (P9WQA9 whole entry, looked up, stated change not applied): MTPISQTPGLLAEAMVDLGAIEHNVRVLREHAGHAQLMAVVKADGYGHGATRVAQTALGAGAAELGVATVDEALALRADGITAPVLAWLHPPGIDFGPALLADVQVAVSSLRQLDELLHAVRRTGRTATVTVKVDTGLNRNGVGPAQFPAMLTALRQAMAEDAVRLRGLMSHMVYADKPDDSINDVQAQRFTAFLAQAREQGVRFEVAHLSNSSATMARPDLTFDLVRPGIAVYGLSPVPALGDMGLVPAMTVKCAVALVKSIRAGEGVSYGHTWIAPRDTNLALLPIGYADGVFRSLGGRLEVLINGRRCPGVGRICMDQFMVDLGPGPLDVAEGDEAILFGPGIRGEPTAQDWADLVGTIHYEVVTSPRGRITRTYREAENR

[2] = biological target: T1, alanine racemase enzyme from S. aureus (Staphylococcus aureus, UniProt P63479); test: biochemical; conditions: for inhibition at 2500 µM: read-out: In % (percent inhibition of alanine racemase)
T1 sequence (P63479 1-382): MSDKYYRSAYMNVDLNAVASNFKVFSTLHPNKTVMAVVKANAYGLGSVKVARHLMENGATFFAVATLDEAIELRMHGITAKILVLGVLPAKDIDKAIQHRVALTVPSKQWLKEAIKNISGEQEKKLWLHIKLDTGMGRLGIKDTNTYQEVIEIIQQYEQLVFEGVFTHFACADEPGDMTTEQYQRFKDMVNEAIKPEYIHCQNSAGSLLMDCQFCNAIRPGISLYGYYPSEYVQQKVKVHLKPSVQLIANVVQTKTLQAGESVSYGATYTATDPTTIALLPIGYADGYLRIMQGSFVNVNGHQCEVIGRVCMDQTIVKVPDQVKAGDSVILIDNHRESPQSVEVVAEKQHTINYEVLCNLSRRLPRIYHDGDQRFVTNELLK

[3] = biological target: alanine racemase enzyme from P. aeruginosa (Pseudomonas aeruginosa, UniProt Q9HTQ2, A178S/N326M/S138R/S262R); test: biochemical; conditions: for inhibition at 2500 µM: read-out: In % (percent inhibition of alanine racemase)
alanine racemase enzyme from P. aeruginosa, sequence (Q9HTQ2 whole entry S138R/A178S/S262R/N326M): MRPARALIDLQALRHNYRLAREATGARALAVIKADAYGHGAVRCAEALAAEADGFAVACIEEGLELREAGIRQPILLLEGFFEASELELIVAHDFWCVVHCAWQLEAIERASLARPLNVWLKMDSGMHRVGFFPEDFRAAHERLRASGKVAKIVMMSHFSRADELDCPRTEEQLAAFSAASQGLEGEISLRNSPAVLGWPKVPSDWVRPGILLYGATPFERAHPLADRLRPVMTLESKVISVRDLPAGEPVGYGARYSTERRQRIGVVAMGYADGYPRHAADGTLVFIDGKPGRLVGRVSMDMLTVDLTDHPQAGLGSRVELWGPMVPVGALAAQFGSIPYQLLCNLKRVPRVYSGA

[4] = biological target: alanine racemase enzyme from E. Coli (Escherichia coli, UniProt P0A6B4); test: biochemical; conditions: for inhibition at 2500 µM: read-out: In % (percent inhibition of alanine racemase)
alanine racemase enzyme from E. Coli, sequence (P0A6B4 whole entry): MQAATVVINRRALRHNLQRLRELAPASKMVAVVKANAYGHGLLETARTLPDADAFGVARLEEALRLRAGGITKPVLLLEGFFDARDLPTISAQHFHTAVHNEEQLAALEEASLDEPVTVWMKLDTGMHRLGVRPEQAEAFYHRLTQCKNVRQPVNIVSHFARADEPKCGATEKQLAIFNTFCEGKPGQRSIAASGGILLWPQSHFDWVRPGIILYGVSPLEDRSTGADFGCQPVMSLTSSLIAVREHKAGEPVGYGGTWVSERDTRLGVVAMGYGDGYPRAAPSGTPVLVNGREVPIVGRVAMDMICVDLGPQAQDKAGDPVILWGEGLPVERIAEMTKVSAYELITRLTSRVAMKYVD

S. aureus = test: microbe, parasite or virus in culture; assay type: cell-based
E. Coli = test: microbe, parasite or virus in culture; assay type: cell-based
M. tuberculosis [5] = assay type: cell-based
M. tuberculosis [6] = test: microbe, parasite or virus in culture; assay type: cell-based
[7] = S. aureus ALR, % Inhibition at 2.5 mM
[8] = P. aeruginosa ALR, % Inhibition at 2.5 mM
[9] = P. aeruginosa ALR, read-out: Ki
[10] = E. Coli ALR, % Inhibition at 2.5 mM
[11] = Staphylococcus aureus, read-out: MIC
[12] = Escherichia coli, read-out: MIC
[13] = TB Assay of Hydroxamate Candidates, DMSO control 7, Water control 8
[14] = Mycobacterium tuberculosis, MGIT Assay, read-out: MIC

Row | Compound | In % (percent inhibition of alanine racemase) [1] [%] | inhibition at 2500 µM [2, 7] [%] | Ki ([2]; S. aureus ALR, read-out: Ki) [µM] | inhibition at 2500 µM [3, 8] [%] | Ki [3, 9] [µM] | inhibition at 2500 µM [4, 10] [%] | Ki ([4]; E. Coli ALR, read-out: Ki) [µM] | MIC (S. aureus; [11]) [mM] | MIC (E. Coli; [12]) [mM] | % In in TB-ALR-assay [1] [%] | Days of Detection (M. tuberculosis [5]; [13]) [days] | MIC (M. tuberculosis [6]; [14]) [µg/mL] | inhibition at 2500 µM [2] [%] | Ki ([3]; Ki) [µM] | inhibition at 2500 µM [3] [%] | Ki ([4]; Ki) [µM] | inhibition at 2500 µM [4] [%] | MIC (S. aureus) [mM] | MIC (E. Coli; Escherichia coli) [mM] | In % (percent inhibition of alanine racemase) [3, 8] [%] | further results
1 | NC(=O)OCC(N)C(=O)NO (stereo not shown) [H2NCH(CH2OCONH2)C(O)NILIOH] | 97 ± 5 | 93 ± 4 | 56 | 94 ± 5 | 30 | 96 ± 8 | 8 | > 5 | > 5 |  |  |  |  |  |  |  |  |  |  |  | 
2 | N[C@@H]1CON=C1O [D-cycloserine, reference compound] | 93 | 94 | 10 | 95 | 10 | 93 | 10 | 0.2 (≈ 20.4 µg/mL) |  | 96 | >40 | < 12.5 |  |  |  |  |  |  |  |  | 
3 | Cl.NCC(=O)NO [HCl•H2NCH2C(O)NHOH, Glycine Hydroxamic Acid Hydrochloride] | 105 ± 6 |  |  |  |  |  |  |  |  | 100 |  |  | 95 ± 1 | 201 | 114 ± 14 | 268 | 88 ± 4 | >5 | > 5 |  | Ki ([2]; Ki): 217 µM; Days of Detection (M. tuberculosis [5]): 16.5 days; MIC (M. tuberculosis [6]; Mycobacterium tuberculosis): 200 µg/mL
4 | C[C@H](N)C(=O)NO.Cl [HCl•H2NCH(CH3)C(O)NHOH*, L-Alanine Hydroxamic Acid Hydrochloride] |  |  |  |  |  |  |  |  |  |  |  |  | 32 ± 8 | 1060 | 33 ± 2 | 2780 | 39 ± 8 |  | > 5 |  | Ki ([2]; Ki): 1300 µM; MIC (S. aureus; Staphylococcus aureus): > 5 mM; melting point: 178 to 180 °C
5 | N-Benzylglycine Hydroxamic Acid [PhCH2NHCH2C(O)NHOH] | 88 ± 3 |  | 1980 |  | 1240 |  | 1840 |  |  | 88 | 18.5 |  |  |  |  |  |  | >5 |  | 39 ± 9 | Ki [1]: 519 µM; In % (percent inhibition of alanine racemase) [2, 7]: 53 ± 13%; In % (percent inhibition of alanine racemase) [4, 10]: 0.58 ± 3%; MIC (E. Coli): >5 mM; MIC (M. tuberculosis [6]; MGIT Assay): 50 µg/mL
6 | NCC(=O)NO [H2NOH2G(O)NHOH] | 100 ± 2 |  | 34 |  | 33 |  | 75 |  |  |  |  |  |  |  |  |  |  | >5 |  | 90 ± 2 | In % (percent inhibition of alanine racemase) [2, 7]: 92 ± 3%; In % (percent inhibition of alanine racemase) [4, 10]: 90 ± 4%; MIC (E. Coli): >5 mM
7 | NC(=O)C(=O)NO [H2NC(O)C(O)NHOH, N-Hydroxyoxalamide] | 93 ± 8 | 97 | 17 | 99 ± 4 | 16 | 97 ± 4 | 52 | > 5 | > 5 | 93 | 32 | 50 (≈ 480 µM) |  |  |  |  |  |  |  |  | 
8 | NC(CO)C(=O)NO (stereo not shown) [H2NCH(CH2OH)C(O)NHOH] | 33 ± 8 | 19 ± 8 | 7200 | 28 ± 5 | 5100 | 0 |  | > 5 | > 5 | 33 | 21.5 | 100 (≈ 833 µM) |  |  |  |  |  |  |  |  | 
9 | NCC(=O)NO [TFA•H2NCH2G(O)NHOH, glycine hydroxamic trifluoracetic acid] | 104 ± 4 | 99 ± 3 | 23 |  | 20 | 94 ± 4 | 78 |  |  |  |  |  |  |  |  |  |  | >5 |  | 112 ± 7 | MIC (E. Coli): >5 mM
10 | NCC(=O)NO [H2NCH2C(O)NHOH, glycine hydroxamic acid] | 100 ± 1 |  | 90 |  | 65 |  | 39 |  |  | 100 | >40 | 50 (≈ 555 µM) |  |  |  |  |  | >0.5 |  | 94 ± 1 | In % (percent inhibition of alanine racemase) [2, 7]: 91 ± 3%; In % (percent inhibition of alanine racemase) [4, 10]: 90 ± 5%; MIC (E. Coli): >5 mM
11 | CONC(=O)CN.O=C(O)C(F)(F)F [TFA•H2NCH2C(O)NHOCH3, O-Methylglycine Hydroxamic Acid Trifluoroacetic Acid] | 66 | 47 | 1850 | 55 | 1510 | 67 | 1340 | > 5 | > 5 | 66 | >40 | 50 |  |  |  |  |  |  |  |  | 
12 | C[C@@H](N)C(=O)NO [Hcl•H2NCH(CH3)C(O)NHOH, D-Alanine Hydroxamic Acid Hydrochloride] |  |  |  |  |  |  |  |  |  |  |  |  | 33 ± 6 | 1010 | 29 ± 6 | 5200 | 35 ± 7 |  | > 5 |  | Ki ([2]; Ki): 2680 µM; MIC (S. aureus; Staphylococcus aureus): > 5 mM
13 | Cl.NCCC(=O)NO [HCl•H2NCH2CH2C(O)NHOH, β-Alanine Hydroxamic Acid Hydrochloride] | 79 ± 12 |  |  |  |  |  |  |  |  | 79 |  |  | 49 ± 12 | 894 | 34 ± 9 | 1210 | 37 ± 10 |  | > 5 |  | Ki ([2]; Ki): 401 µM; MIC (S. aureus; Staphylococcus aureus): > 5 mM; Days of Detection (M. tuberculosis [5]): 8.5 days; MIC (M. tuberculosis [6]; Mycobacterium tuberculosis): > 200 µg/mL; melting point: 140 to 142 °C
14 | N,O-Methylglycine Hydroxamic Acid Trifluoroacetic Acid [TFA•H2NCH2C(O)N(CH3)OCH3] | 66 ± 4 |  | 590 |  | 633 |  | 875 |  |  | 66 |  |  |  |  |  |  |  | >5 |  | 68 ± 5 | Ki [1]: 644 µM; In % (percent inhibition of alanine racemase) [2, 7]: 66 ± 3%; In % (percent inhibition of alanine racemase) [4, 10]: 49 ± 2%; MIC (E. Coli): >5 mM; Days of Detection (M. tuberculosis [5]): 9 days; MIC (M. tuberculosis [6]): >200 µg/mL
15 | CC(N)C(=O)NO (stereo not shown) [HzNGH(~Ha)G(O)NHOH] | 48 ± 9 | 57 ± 4 | 810 | 66 ± 3 | 656 | 58 ± 2 | 756 | > 5 | > 5 |  |  |  |  |  |  |  |  |  |  |  | 
16 | CNCC(=O)NO [CH3NHCH2C(O)NHOH, Sarcosine Hydroxamic Acid] | 81 ± 7 |  | 14300 |  |  |  |  |  |  | 81 |  |  | 28 ± 5 | 18200 | 24 ± 5 | 5700 | 34 ± 12 |  | > 5 |  | MIC (S. aureus; Staphylococcus aureus): > 5 mM; Days of Detection (M. tuberculosis [5]): 32.5 days; MIC (M. tuberculosis [6]; Mycobacterium tuberculosis): 200 µg/mL (≈ 1920 µM); melting point: 140 to 141 °C
